Measured values published in PubChem BioAssay AID258 (DTP/NCI, 2004).
Several values for one entry are separate records, joined by “and”; a condition that tells them apart may be missing. Equal values may be shown once. Inconclusive results and toxic doses are left out.

Test system: CD2F1 mice, L1210 leukemia sc, survival T/C
Assay: NCI In Vivo Anticancer Drug Screen. Data for tumor model L1210 Leukemia (subcutaneous) in CD2F1 (CDF1) mice
Conditions: higher = longer survival
In short: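 Antitumor activity is scored in tumor-bearing mice by comparing survival or tumor size of treated animals against vehicle-treated controls, reported as T/C.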

SMILES: CN(C)c1nc(N(C)C)nc(N(C)C)n1
- T/C (endpoint: median survival time, dose: 19.0 mg/kg/injection, schedule: Q01DX009 (ip), vehicle: saline with Tween-80): 97 % of control
- T/C (endpoint: median survival time, dose: 20.0 mg/kg/injection, schedule: Q01DX009 (ip), vehicle: saline with Tween-80): 106 % of control
- T/C (endpoint: median survival time, dose: 20.0 mg/kg/injection, schedule: Q01DX009 (sc), vehicle: saline): 107 % of control
- T/C (endpoint: median survival time, dose: 37.5 mg/kg/injection, schedule: Q01DX009 (ip), vehicle: saline with Tween-80): 91 % of control
- T/C (endpoint: median survival time, dose: 40.0 mg/kg/injection, schedule: Q01DX009 (ip), vehicle: saline with Tween-80): 102 % of control
- T/C (endpoint: median survival time, dose: 40.0 mg/kg/injection, schedule: Q01DX009 (sc), vehicle: saline): 100 % of control
- T/C (endpoint: median survival time, dose: 75.0 mg/kg/injection, schedule: Q01DX009 (ip), vehicle: saline with Tween-80): 104 % of control
- T/C (endpoint: median survival time, dose: 80.0 mg/kg/injection, schedule: Q01DX009 (ip), vehicle: saline with Tween-80): 106 % of control
- T/C (endpoint: median survival time, dose: 80.0 mg/kg/injection, schedule: Q01DX009 (sc), vehicle: saline): 100 % of control
- T/C (endpoint: median survival time, dose: 150.0 mg/kg/injection, schedule: Q01DX009 (ip), vehicle: saline with Tween-80): 91 % of control
- T/C (endpoint: median survival time, dose: 160.0 mg/kg/injection, schedule: Q01DX009 (ip), vehicle: saline with Tween-80): 109 % of control and 110 % of control
- T/C (endpoint: median survival time, dose: 160.0 mg/kg/injection, schedule: Q01DX009 (sc), vehicle: saline): 113 % of control
- T/C (endpoint: median survival time, dose: 240.0 mg/kg/injection, schedule: Q01DX009 (ip), vehicle: saline with Tween-80): 90 % of control

SMILES: O=C(Nc1ccc(C2=NCCN2)cc1)c1cccc(C(=O)Nc2ccc(C3=NCCN3)cc2)c1
- T/C (endpoint: median survival time, dose: 2.0 mg/kg/injection, schedule: Q01DX Z (iv), vehicle: water): 100 % of control
- T/C (endpoint: median survival time, dose: 3.0 mg/kg/injection, schedule: Q01DX Z (sc), vehicle: methylcellulose (MC)): 100 % of control
- T/C (endpoint: median survival time, dose: 4.0 mg/kg/injection, schedule: Q01DX Z (iv), vehicle: water): 111 % of control
- T/C (endpoint: median survival time, dose: 5.0 mg/kg/injection, schedule: Q01DX Z (sc), vehicle: methylcellulose (MC)): 100 % of control
- T/C (endpoint: median survival time, dose: 5.0 mg/kg/injection, schedule: Q01DX Z (sc), vehicle: water): 111 % of control
- T/C (endpoint: median survival time, dose: 8.0 mg/kg/injection, schedule: Q01DX Z (iv), vehicle: water): 161 % of control
- T/C (endpoint: median survival time, dose: 8.0 mg/kg/injection, schedule: Q01DX Z (sc), vehicle: water): 183 % of control
- T/C (endpoint: median survival time, dose: 8.4 mg/kg/injection, schedule: Q01DX Z (sc), vehicle: methylcellulose (MC)): 111 % of control
- T/C (endpoint: median survival time, dose: 8.4 mg/kg/injection, schedule: Q01DX Z (sc), vehicle: water): 200 % of control
- T/C (endpoint: median survival time, dose: 14.0 mg/kg/injection, schedule: Q01DX Z (sc), vehicle: water): 250 % of control
- T/C (endpoint: median survival time, dose: 16.0 mg/kg/injection, schedule: Q01DX Z (sc), vehicle: water): 277 % of control
- T/C (endpoint: median survival time, dose: 23.0 mg/kg/injection, schedule: Q01DX Z (sc), vehicle: methylcellulose (MC)): 222 % of control
- T/C (endpoint: median survival time, dose: 23.0 mg/kg/injection, schedule: Q01DX Z (sc), vehicle: water): 283 % of control
- T/C (endpoint: median survival time, dose: 32.0 mg/kg/injection, schedule: Q01DX Z (sc), vehicle: water): 305 % of control
- T/C (endpoint: median survival time, dose: 39.0 mg/kg/injection, schedule: Q01DX Z (sc), vehicle: methylcellulose (MC)): 161 % of control
- T/C (endpoint: median survival time, dose: 39.0 mg/kg/injection, schedule: Q01DX Z (sc), vehicle: water): 266 % of control
- T/C (endpoint: median survival time, dose: 64.0 mg/kg/injection, schedule: Q01DX Z (sc), vehicle: water): 283 % of control
- T/C (endpoint: median survival time, dose: 65.0 mg/kg/injection, schedule: Q01DX Z (sc), vehicle: methylcellulose (MC)): 177 % of control
- T/C (endpoint: median survival time, dose: 65.0 mg/kg/injection, schedule: Q01DX Z (sc), vehicle: water): 266 % of control
- T/C (endpoint: median survival time, dose: 128.0 mg/kg/injection, schedule: Q01DX Z (sc), vehicle: water): 283 % of control

SMILES: CCN=c1cc2oc3cc(NCC)c(C)cc3c(-c3ccccc3C(=O)OCC)c-2cc1C
- T/C (endpoint: median survival time, dose: 0.63 mg/kg/injection, schedule: Q01DX009 (ip), vehicle: water): 102 % of control
- T/C (endpoint: median survival time, dose: 0.63 mg/kg/injection, schedule: Q01DX009 (sc), vehicle: water): 100 % of control
- T/C (endpoint: median survival time, dose: 1.25 mg/kg/injection, schedule: Q01DX009 (ip), vehicle: water): 96 % of control
- T/C (endpoint: median survival time, dose: 1.25 mg/kg/injection, schedule: Q01DX009 (sc), vehicle: water): 104 % of control and 97 % of control
- T/C (endpoint: median survival time, dose: 2.5 mg/kg/injection, schedule: Q01DX009 (sc), vehicle: water): 105 % of control
- T/C (endpoint: median survival time, dose: 5.0 mg/kg/injection, schedule: Q01DX009 (sc), vehicle: water): 104 % of control

SMILES: Nc1nc(N)c2[nH]cnc2n1
- T/C (endpoint: median survival time, dose: 20.0 mg/kg/injection, schedule: Q01DX Z (sc), vehicle: steriod suspending solution): 106 % of control
- T/C (endpoint: median survival time, dose: 40.0 mg/kg/injection, schedule: Q01DX Z (sc), vehicle: steriod suspending solution): 100 % of control
- T/C (endpoint: median survival time, dose: 80.0 mg/kg/injection, schedule: Q01DX Z (sc), vehicle: steriod suspending solution): 100 % of control
- T/C (endpoint: median survival time, dose: 160.0 mg/kg/injection, schedule: Q01DX Z (sc), vehicle: steriod suspending solution): 100 % of control

SMILES: Nc1ccn(C2OC(COP(=O)(O)O)C(O)C2O)c(=O)n1 (centres undefined)
- T/C (endpoint: mean survival time, dose: 22.5 mg/kg/injection, schedule: Q ##X009 (ip), vehicle: saline): 181 % of control
- T/C (endpoint: mean survival time, dose: 45.0 mg/kg/injection, schedule: Q ##X009 (ip), vehicle: saline): 206 % of control
- T/C (endpoint: mean survival time, dose: 90.0 mg/kg/injection, schedule: Q ##X009 (ip), vehicle: saline): 161 % of control
- T/C (endpoint: mean survival time, dose: 180.0 mg/kg/injection, schedule: Q ##X009 (ip), vehicle: saline): 176 % of control
- T/C (endpoint: median survival time, dose: 22.5 mg/kg/injection, schedule: Q ##X009 (ip), vehicle: saline): 179 % of control
- T/C (endpoint: median survival time, dose: 22.5 mg/kg/injection, schedule: Q## X Z (ip), vehicle: saline): 188 % of control
- T/C (endpoint: median survival time, dose: 45.0 mg/kg/injection, schedule: Q ##X009 (ip), vehicle: saline): 198 % of control
- T/C (endpoint: median survival time, dose: 45.0 mg/kg/injection, schedule: Q## X Z (ip), vehicle: saline): 211 % of control
- T/C (endpoint: median survival time, dose: 90.0 mg/kg/injection, schedule: Q ##X009 (ip), vehicle: saline): 175 % of control
- T/C (endpoint: median survival time, dose: 90.0 mg/kg/injection, schedule: Q## X Z (ip), vehicle: saline): 183 % of control
- T/C (endpoint: median survival time, dose: 180.0 mg/kg/injection, schedule: Q ##X009 (ip), vehicle: saline): 169 % of control
- T/C (endpoint: median survival time, dose: 180.0 mg/kg/injection, schedule: Q## X Z (ip), vehicle: saline): 177 % of control

SMILES: COc1cc([C@@H]2c3cc4c(cc3[C@H](OC(C)=O)[C@H]3COC(=O)[C@@H]23)OCO4)cc(OC)c1OC
- T/C (endpoint: median survival time, dose: 500.0 mg/kg/injection, schedule: Q01DX Z (sc), vehicle: methylcellulose (MC)): 100 % of control

SMILES: Cc1cccnc1
- T/C (endpoint: median survival time, dose: 108.0 mg/kg/injection, schedule: Q01DX Z (sc), vehicle: water): 100 % of control
- T/C (endpoint: median survival time, dose: 180.0 mg/kg/injection, schedule: Q01DX Z (sc), vehicle: water): 100 % of control

SMILES: Nc1nncs1
- T/C (endpoint: median survival time, dose: 39.0 mg/kg/injection, schedule: Q02DX005 (sc), vehicle: water): 100 % of control and 103 % of control
- T/C (endpoint: median survival time, dose: 65.0 mg/kg/injection, schedule: Q02DX005 (sc), vehicle: water): 100 % of control and 102 % of control
- T/C (endpoint: median survival time, dose: 108.0 mg/kg/injection, schedule: Q02DX005 (sc), vehicle: water): 100 % of control and 106 % of control
- T/C (endpoint: median survival time, dose: 180.0 mg/kg/injection, schedule: Q02DX005 (sc), vehicle: water): 122 % of control
- T/C (endpoint: median survival time, dose: 300.0 mg/kg/injection, schedule: Q02DX005 (sc), vehicle: water): 166 % of control and 180 % of control
- T/C (endpoint: median survival time, dose: 300.0 mg/kg/injection, schedule: Q04DX003 (sc), vehicle: saline): 100 % of control and 104 % of control
- T/C (endpoint: median survival time, dose: 500.0 mg/kg/injection, schedule: Q02DX005 (sc), vehicle: water): 172 % of control and 180 % of control
- T/C (endpoint: median survival time, dose: 500.0 mg/kg/injection, schedule: Q04DX003 (sc), vehicle: saline): 105 % of control and 112 % of control
- T/C (endpoint: median survival time, dose: 833.0 mg/kg/injection, schedule: Q04DX003 (sc), vehicle: saline): 116 % of control and 124 % of control
- T/C (endpoint: median survival time, dose: 1388.0 mg/kg/injection, schedule: Q04DX003 (sc), vehicle: saline): 154 % of control

SMILES: CS(=O)(=O)OCCCCCCCCCOS(C)(=O)=O
- T/C (endpoint: median survival time, dose: 47.0 mg/kg/injection, schedule: Q01DX Z (sc), vehicle: carboxymethylcellulose (CMC)): 112 % of control
